# Data as given in patent US8178552B2, “7-Azaindole derivatives and their use in the inhibition of c-Jun N-terminal kinase” (Eisai R&D Management Co., Ltd., priority 2008, dated 2012).
# Molecular target: JNK3 (Homo sapiens, UniProt P53779)
# Assay: JNK3 SPA assay
# Type: biochemical
# Conditions: 3.33 μM ATP, GST-c-Jun substrate; read-out: IC50 against JNK3
# Description: JNK1, JNK2, JNK3—SPA Assay
# JNK1, JNK2, JNK3—SPA Assay • 1. Compound is dissolved in DMSO to a convenient concentration and this is diluted in 10% DMSO to a five times concentrate of the desired starting concentration (frequently 1:100). • 2. 10 μl of 500 mM EDTA is added to alternative wells of the Opti-plate row, which will receive kinase reaction plus DMSO. This creates the negative control. • 3. For the JNK2 and JNK3 assay, compounds are prepared in six 2-fold dilutions with water and each concentration is tested in duplicate. For the JNK1 assay compounds are prepared in four 5-fold dilutions with water which are tested in triplicate. Controls are treated identically. • 4. 20 μl per well of each compound concentration is transferred to an Opti-plate, in duplicate. • 5. 30 μl (JNK2/3 SPA) or 50 μl (JNK1 SPA) of substrate solution (25 mM HEPES pH 7.5, 10 mM magnesium acetate with 3.33 μM ATP (JNK2/3) or 2 μM ATP (JNK1), approximately 7.5 kBq [γ-^33P] ATP, GST-c-Jun, in water) is added to each well. • 6. 50 μl (JNK2/3 SPA) or 30 μl (JNK1 SPA) of kinase solution (JNK in 25 mM HEPES pH 7.5, 10 mM Mg Acetate) is added to each well.
# • 7. The plate is incubated for 30 minutes at room temperature. • 8. 100 μl of bead/stop solution is added to each well (5 mg/ml glutathione-PVT-SPA beads, 40 mM ATP in PBS). • 9. Plates are sealed and incubated for 30 minutes at room temperature, centrifuged for 10 minutes at 2500 g and counted. • 10. The IC50 values are calculated as the concentration of the compound being tested at which the phosphorylation of c-Jun is decreased to 50% of the control value.
# JNK3, sequence (P53779 whole entry, species assumed): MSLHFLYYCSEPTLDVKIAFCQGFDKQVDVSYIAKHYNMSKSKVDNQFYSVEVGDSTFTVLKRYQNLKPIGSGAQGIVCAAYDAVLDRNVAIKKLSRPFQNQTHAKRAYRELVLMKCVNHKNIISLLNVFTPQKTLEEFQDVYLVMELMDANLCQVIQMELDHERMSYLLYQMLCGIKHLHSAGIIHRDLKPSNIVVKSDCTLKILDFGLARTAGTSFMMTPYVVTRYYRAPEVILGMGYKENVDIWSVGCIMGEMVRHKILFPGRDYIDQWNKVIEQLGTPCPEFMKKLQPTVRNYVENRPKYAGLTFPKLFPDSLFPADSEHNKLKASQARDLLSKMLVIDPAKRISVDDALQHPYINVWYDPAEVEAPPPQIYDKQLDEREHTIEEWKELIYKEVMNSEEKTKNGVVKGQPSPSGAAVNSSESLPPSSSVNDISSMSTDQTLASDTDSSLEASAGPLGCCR
row,Compound,IC50 [nM]
1,"CN1C2C=C(c3cnc4[nH]cc(-c5cnn(C)c5)c4c3)CC1CC2 (centres unmarked) [Compound I-143, 3-(1-methyl-1H-pyrazol-4-yl)-5-(8-methyl-8-azabicyclo[3.2.1]oct-3-en-3-yl)-1H-pyrrolo[2,3-b]pyridine]",> 500
2,"CCN(C(C)C)C1CCC(c2cnc3[nH]cc(-c4cnn(C)c4)c3c2)CC1 (mixture of isomers) [Compound I-133, N-ethyl-N-isopropyl-4-(3-(1-methyl-1H-pyrazol-4-yl)-1H-pyrrolo[2,3-b]pyridin-5-yl)cyclohexanamine]",468
3,"CCN(C)[C@H]1CC[C@H](c2cnc3[nH]cc(-c4cnn(C)c4)c3c2)CC1 [Compound I-109, (1r,4r)-N-ethyl-N-methyl-4-(3-(1-methyl-1H-pyrazol-4-yl)-1H-pyrrolo[2,3-b]pyridin-5-yl)cyclohexanamine]",302
4,"CN(C)C1CCC(c2cnc3[nH]cc(-c4cnn(CCN5CCOCC5)c4)c3c2)CC1 (mixture of isomers) [Compound I-56, N,N-dimethyl-4-(3-(1-(2-morpholinoethyl)-1H-pyrazol-4-yl)-1H-pyrrolo[2,3-b]pyridin-5-yl)cyclohexanamine]",71
5,"Cn1cc(-c2c[nH]c3ncc([C@]4(F)CC[C@@H](N5CCOCC5)CC4)cc23)cn1 [Compound I-162, 4-((1s,4s)-4-fluoro-4-(3-(1-methyl-1H-pyrazol-4-yl)-1H-pyrrolo[2,3-b]pyridin-5-yl)cyclohexyl)morpholine]",> 2000
6,"Cn1cc(-c2c[nH]c3ncc(C4=CCCCCC4)cc23)cn1 [Compound I-13, (E)-5-cycloheptenyl-3-(1-methyl-1H-pyrazol-4-yl)-1H-pyrrolo[2,3-b]pyridine]",126
7,"C1=C(c2cnc3[nH]cc(-c4cnn(CCN5CCOCC5)c4)c3c2)CCC1 [Compound I-62, 5-Cyclopent-1-enyl-3-[1-(2-morpholin-4-yl-ethyl)-1H-pyrazol-4-yl]-1H-pyrrolo[2,3-b]pyridine]",105
8,"CC(C)N[C@H]1CC[C@H](c2cnc3[nH]cc(-c4cnn(C)c4)c3c2)CC1 [Compound I-105, (1r,4r)-N-isopropyl-4-(3-(1-methyl-1H-pyrazol-4-yl)-1H-pyrrolo[2,3-b]pyridin-5-yl)cyclohexanamine]",320
9,"Cn1cc(-c2c[nH]c3ncc(C4=C[C@H]5O[C@@H]4C[C@@H]5C#N)cc23)cn1 [I-155 exo, (1R,2R,4R)-5-(3-(1-methyl-1H-pyrazol-4-yl)-1H-pyrrolo[2,3-b]pyridin-5-yl)-7-oxabicyclo[2.2.1]hept-5-ene-2-carbonitrile]",219
10,"Cn1cc(-c2c[nH]c3ncc(C4CCCC4)cc23)cn1 [Compound I-11, 5-cyclopentyl-3-(1-methyl-1H-pyrazol-4-yl)-1H-pyrrolo[2,3-b]pyridine]",132
11,"Cn1cc(-c2c[nH]c3ncc([C@H]4CC[C@@H](N5CC[C@@H](F)C5)CC4)cc23)cn1 [Compound I-53, 5-((1S,4s)-4-((R)-3-fluoropyrrolidin-1-yl)cyclohexyl)-3-(1-methyl-1H-pyrazol-4-yl)-1H-pyrrolo[2,3-b]pyridine]",182
12,"Cn1cc(-c2c[nH]c3ncc([C@H]4CC[C@@H](NCCO)CC4)cc23)cn1 [Compound I-130, 2-((1s,4s)-4-(3-(1-methyl-1H-pyrazol-4-yl)-1H-pyrrolo[2,3-b]pyridin-5-yl)cyclohexylamino)ethanol]",692
13,"C[C@H]1COCCN1[C@H]1CC[C@@H](c2cnc3[nH]cc(-c4cnn(C)c4)c3c2)CC1 [Compound I-104, (S)-3-methyl-4-((1s,4R)-4-(3-(1-methyl-1H-pyrazol-4-yl)-1H-pyrrolo[2,3-b]pyridin-5-yl)cyclohexyl)morpholine]",138
14,"CCN(CC)C1CCC(c2cnc3[nH]cc(-c4cnn(C)c4)c3c2)CC1 (centres unmarked) [Compound I-52, N,N-diethyl-4-(3-(1-methyl-1H-pyrazol-4-yl)-1H-pyrrolo[2,3-b]pyridin-5-yl)cyclohexanamine]",251
15,"CN1CCCN([C@H]2CC[C@@H](c3cnc4[nH]cc(-c5cnn(C)c5)c4c3)CC2)CC1 [Compound I-38, 5-((1s,4s)-4-(4-methyl-1,4-diazepan-1-yl)cyclohexyl)-3-(1-methyl-1H-pyrazol-4-yl)-1H-pyrrolo[2,3-b]pyridine]",98
16,"Cn1cc(-c2c[nH]c3ncc(C4=C[C@H]5O[C@@H]4C[C@H]5C#N)cc23)cn1 [I-155 endo, (1R,2S,4R)-5-(3-(1-methyl-1H-pyrazol-4-yl)-1H-pyrrolo[2,3-b]pyridin-5-yl)-7-oxabicyclo[2.2.1]hept-5-ene-2-carbonitrile]",174
17,"Cn1cc(-c2c[nH]c3ncc(C4=CC5CC(O)CC(C4)C5)cc23)cn1 (centres unmarked) [Compound I-146, 7-(3-(1-methyl-1H-pyrazol-4-yl)-1H-pyrrolo[2,3-b]pyridin-5-yl)bicyclo[3.3.1]non-6-en-3-ol]",832
18,"Cn1cc(-c2c[nH]c3ncc(C4CCC(C(C)(C)C)CC4)cc23)cn1 (mixture of isomers) [Compound I-4, 5-(4-tert-butylcyclohexyl)-3-(1-methyl-1H-pyrazol-4-yl)-1H-pyrrolo[2,3-b]pyridine]",123
19,"COC1=C(c2cnc3[nH]cc(-c4cnn(C)c4)c3c2)CCCC1 [Compound I-31, 5-(2-Methoxy-cyclohex-1-enyl)-3-(1-methyl-1H-pyrazol-4-yl)-1H-pyrrolo[2,3-b]pyridine]",480
20,"Cn1cc(-c2c[nH]c3ncc(C4=CC5CC[C@]4(C)C5(C)C)cc23)cn1 [Compound I-138, 3-(1-methyl-1H-pyrazol-4-yl)-5-((1R)-1,7,7-trimethylbicyclo[2.2.1]hept-2-en-2-yl)-1H-pyrrolo[2,3-b]pyridine]",148
21,"C[C@H]1COCCN1[C@H]1CC[C@H](c2cnc3[nH]cc(-c4cnn(C)c4)c3c2)CC1 [Compound I-103, (S)-3-methyl-4-((1r,4S)-4-(3-(1-methyl-1H-pyrazol-4-yl)-1H-pyrrolo[2,3-b]pyridin-5-yl)cyclohexyl)morpholine]",263
22,"Mixture of 3-(1-methyl-1H-pyrazol-4-yl)-5-(3,5,5-trimethylcyclohex-1-enyl)-1H-pyrrolo[2,3-b]pyridine and 3-(1-methyl-1H-pyrazol-4-yl)-5-(3,3,5-trimethylcyclohex-1-enyl)-1H-pyrrolo[2,3-b]pyridine [Compound I-68]",760
23,"CN(C)C1CCC(c2cnc3[nH]cc(-c4cnn(C)c4)c3c2)CC1 (centres unmarked) [Compound I-9, N,N-dimethyl-4-(3-(1-methyl-1H-pyrazol-4-yl)-1H-pyrrolo[2,3-b]pyridin-5-yl)cyclohexanamine]",40
24,"Cn1cc(-c2c[nH]c3ncc(C4CCCC5C4C5(C)C)cc23)cn1 (centres unmarked) [Compound I-142, 5-(7,7-dimethylbicyclo[4.1.0]heptan-2-yl)-3-(1-methyl-1H-pyrazol-4-yl)-1H-pyrrolo[2,3-b]pyridine]",155
25,"CCCN(CCO)[C@H]1CC[C@H](c2cnc3[nH]cc(-c4cnn(C)c4)c3c2)CC1 [Compound I-125, 2-(((1r,4r)-4-(3-(1-methyl-1H-pyrazol-4-yl)-1H-pyrrolo[2,3-b]pyridin-5-yl)cyclohexyl)(propyl)amino)ethanol]",263
26,"Cn1cc(-c2c[nH]c3ncc([C@H]4CC[C@H](C(=O)O)CC4)cc23)cn1 [Compound I-76, (1r,4r)-4-(3-(1-methyl-1H-pyrazol-4-yl)-1H-pyrrolo[2,3-b]pyridin-5-yl)cyclohexanecarboxylic acid]",251
